Measured values reported in patent US10786477B2, “Formulations having anti-inflammatory activity and antimicrobial activity against gram-positive bacteria” (NATUREZA, INC., priority 2014, dated 2020).
Converted amounts (≈) assume the structure as drawn. Like-named read-outs stand apart in the source and are kept apart here.

What was measured:
C. difficile = assay: MIC, CLSI broth microdilution M07; format: cell-based, Clostridium difficile
S. pyogenes = assay: MIC, CLSI broth microdilution M07; format: cell-based, Streptococcus pyogenes
Bifidobacterium = assay: MIC, CLSI broth microdilution M07; format: cell-based
Lactobacillus spp. = assay: MIC, CLSI broth microdilution M07; format: cell-based
E coli = assay: MIC, CLSI broth microdilution M07; format: cell-based, Escherichia coli
M. bovis = assay: microbe, parasite or virus in culture; format: cell-based
S. mutans = assay: MIC, CLSI broth microdilution M07; format: cell-based, Streptococcus mutans
S. aureus = assay: MIC, CLSI broth microdilution M07; format: cell-based, Staphylococcus aureus
bacteria = settings: background, cited from earlier work; for antibacterial / antimicrobial activity: compared with lauric acid
L. acidophilus = assay: MIC, CLSI broth microdilution M07; format: cell-based; settings: Lactobacillus acidophilus; Table 2; active component range 0.08-8 mg/ml; >8 = no inhibitory effect
Candida = assay: MIC of fungi, CLSI broth microdilution M27; format: cell-based
S. epidemidis = assay: MIC, CLSI broth microdilution M07; format: cell-based, Staphylococcus epidermidis
S. mitis = assay: MIC, CLSI broth microdilution M07; format: cell-based, Streptococcus mitis
Mycobacterium = assay: MIC, CLSI broth microdilution; format: cell-based; settings: Table 1; active component in compositions of first example; range 0.08-5 wt.%
[1] = test system: strains of Staphylococcus; assay: Bacterial growth in presence of first-example suspensions; format: cell-based, Staphylococcus spp.; settings: first example: optically clear suspensions of 1 wt.% active component combined with 2% bile
Source text: In these examples, the optically clear suspensions were combined with 2% bile when evaluating activity against various bacteria.

C. albicans = assay: MIC of fungi, CLSI broth microdilution M27; format: cell-based; settings: Candida albicans; Table 2; active component range 0.08-8 mg/ml
B. bifidum = assay: MIC, CLSI broth microdilution M07; format: cell-based; settings: Bifidobacterium bifidum; Table 2; active component range 0.08-8 mg/ml; >8 = no inhibitory effect
[2] = Clostridioides difficile, Table 2, active component range 0.08-8 mg/ml, read-out: MIC
[3] = Table 1, active component in compositions of first example, range 0.08-5 wt.%
[4] = Table 3, active component range 0.0009-8 μg/ml, values match chitosan-coated liposomes of third example
[5] = Table 1, active component in compositions of first example, range 0.08-5 wt.%, >>5% = no inhibitory effect
[6] = Escherichia coli, Table 2, active component range 0.08-8 mg/ml, >8 = no inhibitory effect, read-out: MIC
[7] = Mycobacterium tuberculosis variant bovis
[8] = Streptococcus mutans, Table 2, active component range 0.08-8 mg/ml, read-out: MIC
[9] = Staphylococcus aureus, Table 2, active component range 0.08-8 mg/ml, read-out: MIC

SMILES	MIC (C. difficile; [2]) [µg/mL]	MIC (C. difficile; [3]) [%]	MIC (C. difficile; [4]) [%]	MIC (S. pyogenes; [3]) [%]	MIC (S. pyogenes; [4]) [%]	MIC (Bifidobacterium; [5])	MIC (Bifidobacterium; [4])	MIC (Lactobacillus spp.; [5])	MIC (Lactobacillus spp.; [4])	MIC (E coli; [6]) [µg/mL]	MIC (E coli; [5])	MIC (E coli; [4])	MIC (M. bovis; [7]) [µg/mL]	MIC (M. bovis; [4]) [%]	MIC (S. mutans; [8]) [µg/mL]	MIC (S. mutans; [3]) [%]	MIC (S. mutans; [4]) [%]	MIC (S. aureus; [9]) [µg/mL]	MIC (S. aureus; [3]) [%]	MIC (S. aureus; [4]) [%]	also measured
CCCCCCCCCCCC(=O)OC [ML, methyl laurate]	800 (≈ 3.73 mM)	1	0.0018	0.5	0.0018	>>5%^	>>5%	>>5%^	>>5%	> 8000	>>5%^	>>5%	2000 (≈ 9.33 mM)	0.0018	800 (≈ 3.73 mM)	0.5	0.0018	800 (≈ 3.73 mM)	0.5	0.0018	antibacterial / antimicrobial activity (bacteria): some modest antibacterial activity in vitro; MIC (L. acidophilus): > 8000 µg/mL; MIC (Candida; [3]): 0.5%; MIC (Candida; [4]): 0.0018%; MIC (S. epidemidis; [3]): 0.5%; MIC (S. epidemidis; [4]): 0.0018%; MIC (S. mitis; [3]): 0.5%; MIC (S. mitis; [4]): 0.0018%; MIC (Mycobacterium): 0.5%; effect on bacterial growth [1]: significantly retarded bacterial growth; MIC (C. albicans): < 80 µg/mL; MIC (B. bifidum): > 8000 µg/mL
CCCCCCCCCCCC(=O)OCC [EL, ethyl laurate]	800 (≈ 3.5 mM)	0.5	0.0018	0.5	0.0018	>>5%^	>>5%	>>5%^	>>5%	> 8000	>>5%^	>>5%	2000 (≈ 8.76 mM)	0.0018	800 (≈ 3.5 mM)	0.5	0.0018	800 (≈ 3.5 mM)	0.5	0.0018	activity relative to lauric acid (times less active) (bacteria): forty times less active; antibacterial / antimicrobial activity (bacteria): little or no antimicrobial activity; MIC (L. acidophilus): > 8000 µg/mL; MIC (Candida; [3]): 0.5%; MIC (Candida; [4]): 0.0018%; MIC (S. epidemidis; [3]): 0.5%; MIC (S. epidemidis; [4]): 0.0018%; MIC (S. mitis; [3]): 0.5%; MIC (S. mitis; [4]): 0.0018%; MIC (Mycobacterium): 1%; effect on bacterial growth [1]: completely bacteriostatic; MIC (C. albicans): < 80 µg/mL; MIC (B. bifidum): > 8000 µg/mL
